Experimental data from patent US20250099491A1, “PREVENTION OR TREATMENT OF CARDIOVASCULAR DISEASES WITH HIGH PENETRATION PRODRUGS OF ASPIRIN AND OTHER NSAIDS” (Techfields Inc., priority 2022, published 2025).

Tests used:
[1] = test system: rats with acute ischemia induced by Middle Cerebral Artery Occlusion (MCAO); assay: Example 14: acute ischemia induced by middle cerebral artery occlusion (MCAO) in rats; type: in vivo, rat; details: for mortalities: deaths of animals in group; for infarct volume: Day 14 after MCAO, TTC staining, mean±SEM
[2] = test system: myocardial infarction in minipigs; assay: Example 20: myocardial infarction efficacy study in minipigs (circumflex coronary artery thrombosis); type: in vivo, minipig; details: twice a day; for infarct volume (myocardial): 28 days after MCA thrombosis
Procedure: Total 24 male minipigs were used for this study. […] The minipigs were already quarantined and acclimated. Before animal being transferred from holding colony, a physical examination was performed and the acceptability of the animals for the study was evaluated by veterinary. […] [table] […] Under anesthesia, thoracotomy was carried out and the circumflex coronary artery of the heart was exposed. The circumflex coronary artery thrombosis was induced by photochemical reaction. […] Photoirradiation was continued for a 30 min. […] After cutting the femoral artery, thoracotomy was carried out and the heart was removed. […] TTC regent for 5 min. After staining with TTC reagent, the photograph of the heart 5 blocks was taken. All blocks were immersed in 10% formalin neutral buffer solution. The 2nd block appeared large necrotic area was cut sections (thickness: 7-8 μm). Slice was stained with H & E reagent. […] The infarct lesions were defined as a necrotic portion of TTC stained blocks. […] The histopathological alteration (necrosis, inflammation, granulation, etc.) of myocardial infarction was examined using H & E stained slides.

[3] = test system: rats, minipigs, rabbits, guinea pigs, Ames, CHO-WBL Cells; assay: Nonclinical pharmacology and toxicology battery; type: in vivo; details: battery of GLP dermal toxicity, genotoxicity, safety pharmacology, irritation and sensitization studies
Procedure: A battery of pharmacology and toxicology studies were conducted to support early clinical trials, including a GLP acute dermal maximum tolerated dose study in rats, a GLP acute dermal maximum tolerated dose study in minipigs, a 28-day GLP repeated dermal dose toxicity and toxicokinetics study in rats with 14-day recovery, a 28-day GLP repeated dermal dose toxicity and toxicokinetics study in minipigs with 14-day recovery, a GLP bacterial reverse mutation assay (Ames), a GLP in vitro chromosome aberration assay in CHO-WBL Cells, a GLP in vivo bone marrow micronucleus assay in rats, a behavioral effects in rats using the functional observational battery, a rat respiratory safety pharmacology study, a cardiovascular telemetry study in the unrestrained conscious minipigs, a skin irritation study in rabbits, and a sensitization test in guinea pigs.

[4] = test system: middle cerebral artery (MCA) thrombosis model of monkeys; assay: Example 19: middle cerebral artery (MCA) thrombosis model of monkeys; details: for infarct volume: Day 28 after MCA thrombosis
Procedure: Aspirin was administered orally by gavage using a nasal catheter with a disposal syringe. The catheter was inserted into the stomach through the mouth. The treatment was once per day of MCA thrombosis (day 0), twice per day for 27 days.
The monkeys that had been fastened for at least 12 h were anesthetized with intramuscular administration of ketamine hydrochloride (20 mg/kg), and placed on an operation-bed. Anesthesia was continued with 1.0% isoflurane in O2 gas until 30 min. The inhalation anesthesia was performed with anesthesia machines (SN23402, Hallowell engineering and manufacturing corporation, USA) and respirators (SN23402, Hallowell engineering and manufacturing corporation, USA), and placed on an operation-bed. During anesthesia, body temperature of the animals (rectal temperature) was controlled between 37.0±0.5° C. by heating mattresses (XMTA-7000, Delixi Electric., Ltd.).
Under anesthesia, the left eye was enucleated using a bipolar coagulation device (Valleylab Force 1C, USA). A craniotomy was then performed supralaterally to the left side of the optic nerve. The next day animals were anesthetized with ketamine hydrochloride (20 mg/kg) and the dura and subarachnoid membrane were opened. MCA thrombosis was induced by photochemical reaction. The proximal part of the main MCA trunk. was irradiated with green light wave length 532 nm achieved by use of a xenon lamp (GL532T3-100FC, Shanghai Laser& Optics Century Col., Ltd.). The irradiation was directed by a 3-mm diameteroptic fiber mounted on a micromanipulator. Irradiation was started and rose bengal 20 mg/kg was injected intravenously. Photoirradiation was continued for a 30 min. The dura was then covered with a moist gelatin sponge.
Neurological deficits (see Table 3) were assessed 1, 3, 5, 7, 14 and 28 days after the onset of MCA thrombosis (day 0) in a blind manner. The neurological deficits was scored on consciousness, sensory system, motor system and skeletal muscle coordination, and the total neurological deficit score was calculated by summing the scores of consciousness, sensory system, motor system and skeletal muscle coordination.
The survival monkeys were deeply anesthetized with pentobarbital sodium (35 mg/kg, i.v.) 28 days after the onset of MCA thrombosis. After cutting the atriums of heart, 200 mL of heparinized physiological saline (10 U/mL) was allowed to perfuse the brain via the common carotid arteries, and followed by perfusion of 200 mL of 10% formalin neutral buffer solution. The whole brain was removed, and then was put in pathology sample preservation packs containing 10% formalin neutral buffer solution. For each brain sample, the coronal sections (thickness: 7-8 μm) per site were prepared at 10 sites at 4-mm intervals. Slices per site were each stained with H & E reagent.
Measurement of cerebral infarct lesions was carried out in a blind manner. The infarct lesions in the ischemic side are defined as a necrotic portion compared with that in the contralateral side. The infarcted area of left cerebral hemisphere (A) in the cross-sections was traced and measured using a computerized image analysis system (image J).
When the infarct size of 2 serial section was made into D and D′, the infarcted volume using the thickness (4 mm) of a section is measured in the following formula:
Total infarcted volume is calculated by summing the infarcted volume of the 10 serial sections.

[5] = high dose 30 mg/kg/time transdermal
[6] = low dose 15 mg/kg/time transdermal
[7] = high dose 30 mg/kg/time transdermal, twice a day
[8] = low dose 15 mg/kg/time transdermal, twice a day

CCN(CC)CCOC(=O)c1ccccc1OC(C)=O.Cl [Compound-1]
mortalities ([1]; high dose 60 mg/kg topical bid): 0 of 25 | infarct volume ([1]; low dose 15 mg/kg topical bid 14 days): 32.07%±2.061 | neuroprotective effect on brain ischemic injury ([1]; low, middle and high dose groups compared to vehicle group): good neuroprotective effect | neurological deficit scores ([1]; low, middle and high dose groups vs vehicle group): show differences significantly | body weight ([1]; low, middle and high dose groups, Day 5-14, vs vehicle group by t-test): increased | infarct volume ([1]; middle dose 30 mg/kg topical bid 14 days): 27.11%±1.658 | mortalities ([1]; middle dose 30 mg/kg topical bid): 0 of 25 | degeneration of myocardium and myocardial necrosis (histopathology) [2, 5]: slight | infarct volume (myocardial) [2, 5]: 138 mm^3 | degeneration of myocardium and myocardial necrosis (histopathology) [2, 6]: slight | infarct volume (myocardial) [2, 6]: 177 mm^3 | nonclinical safety and tolerability [3]: safe and generally well tolerated | infarct volume [4, 7]: 988 mm^3 | infarct volume [4, 8]: 945 mm^3 | Mortality rate [4, 7]: 0/7 | gemistocytic astrocytes in the penumbra area [4, 7]: many gemistocytic astrocytes | liquefaction in the infarct area (histopathology) [4, 7]: slight | Mortality rate [4, 8]: 0/5 | liquefaction in the infarct area (histopathology) [4, 8]: moderate | neurologic deficits ([4]; low dose (15 mg/kg) and high dose (30 mg/kg) groups, transdermal twice a day): dose-dependently improved | delayed neuronal death in the distant area ([4]; transdermal treatment groups): slightly
